Measured values published in patent publication US11214556B1, “Method of treating colorectal cancer” (King Abdulaziz University, priority 2019, dated 2022).

Columns and labels:
HCT-116 cells [1] = assay: SRB cytotoxicity assay, HCT-116; assay type: cell-based, human; conditions: SRB assay, 72 h exposure; ± SEM
Outline: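 Cells in RPMI1640/10% FBS were seeded at 5000 per well and grown 24 h. They were then exposed to 0.01–100 μM compound, or 1% DMSO, for 72 h at 37 °C. After TCA fixation and SRB staining, OD was read at 510 nm and viability expressed relative to untreated controls.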

[2] = tested on: baby hamster kidney (BHK) cell lines; assay: Cytotoxicity against normal baby hamster kidney cells; assay type: cell-based; conditions: 72 h
Protocol: FIG. 3B is a graph illustrating the cytotoxic effect of 4112 against human colon adenocarcinoma cancer cells (HCT-116, Caco-2 and HT-29) vs. normal baby hamster kidney cells (BHK). All cells were exposed to different concentrations of 4112 for 72 h. The cell viability concentration curves were plotted, and the IC50 were determined. *denotes significance at P<0.001;
Based on the favorable pharmacologic and physicochemical properties of MOS-1512, it was selected as a new lead for the second subset of compounds (MOS-1812 to MOS-5112). The compounds in this series contained variable groups at R^1 and R^2 that were all tested against the three cancer cell lines (HCT-116, Caco-2 and HT-29). […]
The sulforhodamine B (SRB) assays were performed according to Skehan, P.; Storeng, R.; Scudiero, D.; Monks, A.; McMahon, J.; Vistica, D.; Warren, J. T.; Bokesch, H.; Kenney, S.; Boyd, M. R., New colorimetric cytotoxicity assay for anticancer-drug screening. […] Briefly, exponentially growing cells were trypsinized, counted and seeded at the appropriate densities (5000 cells/100 μL/well) into 96-well microtiter plates. […] The protein-bound dye was dissolved in 10 mM Tris base solution for (optical density) OD determination at 510 nm using a SpectraMax plus Microplate Reader (Molecular Devices, CA). […]

[3] = tested on: HT-29 colon cancer cell spheroids (cancer stem cells); assay: Primary (1°) colonosphere formation assay; assay type: cell-based, human
Protocol: Compound 4112 and another potent compound 3712 were also evaluated for their ability to inhibit cancer stem cell proliferation using a primary (1°) colonosphere formation assay. In this assay, HT-29 colon cancer cells were grown in low adhesion plates to form spheres as previously described. See Patel, N. J.; Karuturi, R.; Al-Horani, R. A.; Baranwal, S.; Patel, J.; Desai, U. R.; Patel, B. B., Synthetic, non-saccharide, glycosaminoglycan mimetics selectively target colon cancer stem cells. ACS Chem Biol 2014, 9 (8), 1826-33, incorporated herein by reference in its entirety. Wells treated with the inventive compounds were compared to vehicle treated cells for primary sphere growth inhibition after 5 days of incubation. […] Of note, monolayer growth conditions are ideally suited for examining cellular proliferation, whereas spheroid growth conditions examine cancer stem cell growth and self-renewal properties.
For primary sphere formation, cells were plated in nontreated, low adhesion, 96 wells plate at the concentration of 100 cells/100 μL/well in stem cell media (SCM) that consisted of DMEM:F12:AA (Gibco), supplemented with 1×B27 (Gibco), 20 ng/mL epidermal growth factor, and 10 ng/mL fibroblast growth factor (Sigma). After 4 h of incubation, vehicle (control) or 3712 and 4112 at the desired concentrations were added to each well (at least in triplicates for each sample). On day five, numbers of spheres ranging from […] in diameter were counted using phase contrast microscope and percent inhibition was calculated compared to control.

HCT-116 cells [4] = assay: Nuclear fragmentation by DAPI staining; assay type: cell-based, human; conditions: 2.85 μM (IC50), 48 h compared to 24 h
Protocol: Several assays were performed to determine the apoptotic effect of the early lead MOS-1512 as well as the potent derivative MOS-4112 on HCT-116 cells. […] See Drutovic, D.; Chripkova, M.; Pilatova, M.; Kruzliak, P.; Perjesi, P.; Sarissky, M.; Lupi, M.; Damia, G.; Broggini, M.; Mojzis, J., Benzylidenetetralones, cyclic chalcone analogues, induce cell cycle arrest and apoptosis in HCT116 colorectal cancer cells. Tumour Biol 2014, 35 (10), 9967-75, incorporated herein by reference in its entirety.
Cells were cultured on sterile 22 mm^2 cover slips (Harvard Apparatus, MA, USA) in sterile six well plates at a density of 2×10^5 cells/well. […] The fixed and permeabilized cells nuclei were denatured with 2 N HCl (300 μl) for 10 min, washed three times more, and treated with 0.1 μg/ml 4′,6′-diamidino-2-phenylindole, dihydrochloride (DAPI) (Sigma-Aldrich, St. Louis, Mo., USA) (1:1000) in (phosphate-buffered saline-Tween 20 (PBST) for 1 hr. After staining, the cells were washed twice with PBS. The cover slips were then mounted on a glass slide with anti-fade mounting medium and viewed with an epifluorescence microscope, Leica, DM 5500 B (Leica, Buffalo Grove, Ill., USA) at a magnification of 60×, and data were captured digitally and quantified using the microscope provided software.

## CCCNC(=O)/C(=C/c1c[nH]c2ccccc12)NC(=O)/C=C/c1cccs1 [Compound 4112, (Z)-3-(1H-indol-3-yl)-N-propyl-2-[(E)-3-(thien-2-yl)acrylamidolacry]amide]
HCT-116 cells [1]
  IC50: 2.85 ± 1.5 µM
[2]
  IC50: 77.6 ± 6.2 µM
[3]; HT-29 spheres, 5 days of incubation
  IC50: 18.9 ± 1.1 µM
[3]; spheroids >50 μm, 5 days
  inhibition of colon cancer spheroids formation: dose-dependent inhibition
HCT-116 cells [4]
  percentage of cells with fragmented DNA and condensed nuclei: greatly increased
